Measured values as given in paper PMC8879702, “Discovery of Small Molecule Activators of Chemokine Receptor CXCR4 That Improve Diabetic Wound Healing” (International Journal of Molecular Sciences, 2022).

Tests used:
Type in all cases: cell-based
miR-15b = miR-15b expression in human diabetic fibroblasts (real time qPCR)
Experimental: An additional secondary screen was performed to further validate the activity of UCUF-728 as a selective CXCR4 receptor modulator. Human diabetic and non-diabetic fibroblasts were cultured with increasing concentrations of the compound. The cells were incubated for 24 h and then total cellular RNA was isolated to examine the ability of the compound to correct the abnormal expression of miR-15b, and miR-29a. We have shown that human diabetic skin has an increased miR-15b expression at the baseline compared to non-diabetic skin [7].
CEM-CCRF cells (ATCC CCL-119) were cultured in growth media consisting of RPMI 1640 (Corning; Corning NY, USA) supplemented with 10% Fetal Bovine Serum (Corning; Corning, NY, USA), and 100 IU penicillin, […] streptomycin sulfate (Corning; Corning, NY, USA). Cells were maintained in suspension and subcultured twice weekly to maintain cell densities between 0.8 × 10^6 cells/mL and 2.5 × 10^6 cells/mL to maintain exponential growth phase. […]
Total RNA was extracted with TRIzol reagent (Invitrogen, Carlsbad, CA, USA) according to the manufacturer’s established protocol. […] Quantitative PCR was performed on a BIO-RAD CFX96 according to the manufacturer’s instructions. Quantitative values of genes of interest are normalized based on U6. […]

CXCR4 receptor [1] = target: T1, CXCR4 receptor (Homo sapiens, UniProt P61073); assay: 384 w β-arrestin recruitment assay (Tango CXCR4-bla U2OS cells, PeproTech SDF-1α); design: host or cells: Tango CXCR4-bla U2OS cells
Experimental: Tango™ CXCR4-bla U2OS Cells were resuspended in assay media consisting of DMEM (Corning; Corning, NY, USA) supplemented with 1% dialyzed Fetal bovine serum, 0.1 mM MEM Non-essential amino acids solution, 25 mM HEPES solution (Corning; Corning, NY, USA), 1 mM Sodium Pyruvate and 100 IU penicillin, […] streptomycin sulfate (Corning; Corning, NY, USA) at a density of 3.0 × 10^5 cells/mL. Cells suspension was dispensed at 30 μL per well into assay plate and incubated overnight in a cell culture incubator at 37 °C with 5% CO2. Following overnight incubation, LiveBlazer FRET B/G Loading Kit working reagent was prepared according to supplier guidelines and 6 μL of solution was dispensed into each well. Assay plate was covered and incubated in a dark place for two hours and Fluorescence Intensity was measured using the BMG LABTECH CLARIOstar Plus (BMG LABTECH Inc., Cary, NC, USA) according to the LiveBlazer FRET B/G Loading Kit excitation and emission measurement guidelines.

CXCR4 receptor [2] = target: T1, CXCR4 receptor; assay: primary 1536 w β-arrestin recruitment assay (CXCR4-bla U2OS cells, SDF-1α from R&D systems); design: host or cells: Tango CXCR4-bla U2OS cells
Experimental: In our effort to identify CXCR4 activators from the NIH Molecular Library Small Molecule Repository (MLSMR), we developed a primary screening assay to measure β-arrestin recruitment to the activated G-protein coupled receptor (GPCR) by a Florescence Resonance Energy Transfer (FRET) in U2OS cells, overexpressing the CXCR4 receptor engineered with a β-lactamase (bla) reporter system. CXCR4-bla cells plated in 1536 w were stimulated in the presence of 10 µM compound concentration. […] Using this approach, we successfully screened the NIH MLSMR of 370,620 compounds (Figure 1A,B) and identified 303 hits (hit rate = 0.08%). […] These compounds were graded according to activity and structure, resulting in 86 compounds that met the criteria as potential CXCR4 agonists for further characterization (Figure 1B). The workflow for high-throughput screening and this study is illustrated in Figure 1B.
Chemical stability, synthetic tractability, solubility and complete dose response and potency criteria led to the prioritization of the 5-aryl-2-cyclopropyl oxazole scaffold, represented by primary hit Compound 2 (Table 1). The early structure–activity relationship was established around the 5-aryl-2-cyclopropyl oxazole core with commercially available analogs with diverse substituents in the sulfonanilide ring of the scaffold. […] Keeping the 2-OMe substituent constant, we screened a small set of electron withdrawing and electron rich substituents at the 5-position of the anilide ring (entries 16–19). […] The analytical data for UCUF-728 is shown in Supplemental Figures S1–S4.

T1 sequence (P61073 whole entry): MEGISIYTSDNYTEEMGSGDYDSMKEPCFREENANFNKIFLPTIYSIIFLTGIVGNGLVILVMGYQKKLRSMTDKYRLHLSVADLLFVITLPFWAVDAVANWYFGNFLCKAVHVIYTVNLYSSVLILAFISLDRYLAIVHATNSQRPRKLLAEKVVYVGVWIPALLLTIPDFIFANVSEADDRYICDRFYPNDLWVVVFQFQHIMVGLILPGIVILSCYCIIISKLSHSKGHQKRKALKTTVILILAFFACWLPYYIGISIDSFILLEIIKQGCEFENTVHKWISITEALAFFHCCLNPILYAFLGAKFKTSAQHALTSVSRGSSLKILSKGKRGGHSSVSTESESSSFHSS

EC50 (CXCR4 receptor [1]): 0.5 µM
Emax (CXCR4 receptor [1]; U2OS): 30%
EC50 (CXCR4 receptor [2]): 1.1 µM
Emax (CXCR4 receptor [2]; U2OS): 60%
Structure (SMILES): COc1ccc(OC)c(NS(=O)(=O)c2ccc(-c3cnc(C4CC4)o3)cc2)c1 [Compound 19]
lowest concentration with potent suppression of miR-15b expression (miR-15b): 0.1 µM
miR-15b expression (miR-15b; 24 h): decreased the expression of miR-15b
